{"source": "patent US9096607B2", "about": "“Tumor necrosis factor inhibitors” (THE TRUSTEES OF THE UNIVERSITY OF PENNSYLVANIA, priority 2005, dated 2015)", "key": {"TNF-R1": {"target": "T1, TNF-R1 (Homo sapiens, UniProt P19438)", "T1 construct": "The ectodomain of wild type TNF receptor 1 was obtained by PCR from pKP13; made in house", "T1 sequence (P19438 30-211 limits assumed)": "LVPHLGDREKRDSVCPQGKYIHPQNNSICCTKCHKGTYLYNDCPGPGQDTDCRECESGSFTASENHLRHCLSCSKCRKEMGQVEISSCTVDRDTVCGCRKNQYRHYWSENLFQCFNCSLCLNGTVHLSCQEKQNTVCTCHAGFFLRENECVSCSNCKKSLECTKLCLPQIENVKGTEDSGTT", "test": "Acrylamide quenching of intrinsic tryptophan fluorescence of TNF-R1 (Stern-Volmer)", "format": "binding", "settings": "test compound 20 μM, 5 μM TNF-R1; TNF-R1 alone 14.4±0.2 M^−1", "description": "The residue W107 in the WP9 loop fluoresces around 340 nm. In this set of experiments, the resultant concentration of quencher ranged up to 0.25 M, quenching 77.4% of the total intrinsic fluorescence of TNF-R1. […] Thus binding of 1-9 to the receptor changed the disposition of tryptophan-107.\nQuenching experiments with acrylamide were performed in stirred cells, at 25° C., titrating from a stock of 1 M acrylamide by adding 2.5 μl of acrylamide each time. Recombinant TNF-R1 were at the concentration of 5 μM in 1% DMSO. Tryptophan emission, monitored at 340 nm, was observed using 295 nm excitation. Intensity data following quencher additions were averaged over a 10-sec collection and were corrected for background emission (paired control lacking of protein). Intensities, F, at given quencher concentration, [Q], were analyzed using the Stern-Volmer equation, F0/F=1+KS.V·[Q] • Where F0 is the emission intensity of the protein in the absence of quencher, and KS.V is the Stern-Volmer constant for quenching, given by the slope when data are plotted as Fo/F versus [Q].\nFor synthesized small molecules, a test compound at 20 μM was pre-incubated with 5 μM TNF-R1 in 1% DMSO for 30 min, and titrated with 1 M acrylamide the same way as TNF-R1 alone. The F0/F was analyzed using the Stern-Volmer equation, and two slopes from TNF receptor and from TNF receptor with the test compound were compared."}, "L929 cells": {"tested_on": "L929 cells", "test": "Inhibition of TNF-α mediated cytolysis of L929 cells (Alamar Blue)", "format": "cell-based, murine", "settings": "TNF-α 100 pg/mL, actinomycin D 1 μM", "source_text": "L929 cultured murine fibroblasts cells were obtained from American Type Culture Collection (Manassas, Va.). Tissue culture reagents were from Invitrogen or Sigma-Aldrich. TNF-α and Actinomycin D were from Sigma-Aldrich. Alamar Blue reagents (Cell Titer Blue™) were from Promega. The test compounds I-1 through I-16, II-1 through II-8, and III-1 through III-3 were obtained commercially or can be prepared as described above. The test compounds were individually dissolved in dimethylsulfoxide (DMSO). The test compounds were maintained at 4° C. when not in use. Other reagents were high-purity (ACS-grade, HPLC-grade, MilliQ water, or similar).\nStock L929 cells were grown on tissue culture plastic in complete DMEM (Dulbecco's Modified Eagles Medium) supplemented with 10% FBS (Fetal Bovine Serum), NEAA (non-essential amino acids), and glutamine. L929 cells were plated using the same medium on 96-well tissue culture plates at high density (i.e., ˜4×10^4 cells/well, or similar) before use.\nApproximately 20 h after plating, the L929 cells on 96-well plates were re-fed with fresh medium containing one of the test compounds in a concentration selected from 100 μM, 50 μM, 25 μM as a “pre-treatment.” Approximately 30-60 min later, samples were treated with an additional amount of test compound (in the same amount and at the same concentration as the pre-treatment) prepared in medium containing TNF-α (200 pg/mL), and actinomycin D (2 μM). The final concentration of TNF-α in assays was 100 pg/mL. The final concentration of actinomycin D in assays was 1 μM. The plates were incubated for an additional 22-23 h, the Alamar Blue assay reagents were added and metabolic cell viability was determined from reduction of a fluorogenic Alamar Blue derivative.\nThe temperature was maintained at 37° C. with 5% CO2 and humidified. The metabolic viability was measured 1-2 h after addition of assay reagents/Alamar Blue derivative using TECAN SaFire fluorescence plate reader (Tecan Group Ltd., Maennedorf, Switzerland).\nInhibition of TNF-α induced cytolysis by a test compound (X) at a given concentration (y) was calculated as follows: […]"}, "[1]": {"tested_on": "TNF-α signaling in L929 cells", "test": "Inhibition of TNF-α signaling in L929 cells (western blot)", "format": "cell-based, murine", "settings": "2 h pretreatment, TNF-α 20 ng/mL", "description": "The effect of compound I-9 on TNF-α signaling was examined in L929 cells (American Type Culture Collection, Manassas, Va.). Cells were cultured in RPMI (Invitrogen) containing 5% fetal bovine serum. Cells (1×10^6/well) were cultured in 6-well plates for 12 h, treated with or without small molecule for 2 h, and then stimulated with TNF-α at 20 ng/mL for the indicated periods. Cells were then washed with ice-cold phosphate-buffered saline and lysed with lysis buffer. Cell lysates ([…]) were separated by 12% SDS-PAGE, electroblotted onto nitrocellulose membrane (Osmonics, Westborough, Mass.), and probed with anti-phospho-IκBα, anti-IκBα, anti-phospho-p38, anti-p38, and anti-β-actin antibodies (Cell Signaling Technology, Inc., Beverly, Mass.) and developed using an enhanced chemiluminescence (ECL) system (Amersham Biosciences, Piscataway, N.J.)."}, "[2]": {"tested_on": "EGF-signaling in NE91 cells", "test": "Effect on EGF-signaling in NE91 cells (western blot)", "format": "cell-based", "settings": "2 hr treatment, EGF 100 ng/mL", "description": "To verify the effects of I-9 were specific to TNF-α signaling, the effect of I-9 on EGF-signaling was tested in NE91 cells (American Type Culture Collection, Manassas, Va.). NE91 cells were cultured in RPMI medium containing 10% FBS in 6-well plate at the density of 1×10^6/well for 12 hr, followed by 2 hr treatment with or without I-9. Cells were then stimulated with EGF at 100 ng/mL for the indicated time. Cells were then lysed and analyzed by western blotting in the same manner as described above for analysis of TNF-α signaling in L929 cells."}}}
{"smiles": "CC(=O)Oc1ccc(C(C)(c2ccc(OC(C)=O)cc2)c2ccc(OC(C)=O)cc2)cc1", "note": "[Compound I-9, 1,1,1-Tris-(4-acetoxyphenyl)ethane]", "values": [{"measurement": "Stern-Volmer constant for TNF-R1 quenching by acrylamide in the presence of the test compound", "setting": "TNF-R1", "result": "11.6 ± 0.2", "unit": "M⁻¹"}, {"measurement": "% Inhibition at: 25 μM", "setting": "L929 cells; 25 μM compound", "result": 37.2, "unit": "%"}, {"measurement": "% Inhibition at: 50 μM", "setting": "L929 cells; 50 μM compound", "result": 65.2, "unit": "%"}, {"measurement": "% Inhibition at: 100μM", "setting": "L929 cells; 100 μM compound", "result": 50.9, "unit": "%"}, {"measurement": "production of phospho-IκBα following TNF-α treatment", "setting": "[1]", "result": "reduced"}, {"measurement": "production of phospho-p38 following TNF-α treatment", "setting": "[1]", "result": "reduced"}, {"measurement": "changes in EGF-induced signaling", "setting": "[2]", "result": "failed to induce changes"}]}
